Source: ChEMBL document CHEMBL4507278 (2021)

What was measured:
[1] = biological target: Aurora kinase A (Homo sapiens) (UniProt O14965); conditions: Compound concentration 1000.0 nM
[2] = biological target: Tyrosine-protein kinase receptor UFO (Homo sapiens) (UniProt P30530); conditions: Compound concentration 1000.0 nM
[3] = biological target: Serine/threonine-protein kinase SIK3 (Homo sapiens) (UniProt Q9Y2K2); conditions: Compound concentration 1000.0 nM
[4] = biological target: Protein kinase C epsilon type (Homo sapiens) (UniProt Q02156); conditions: Compound concentration 1000.0 nM
[5] = biological target: Cyclin-dependent kinase 17 (Homo sapiens) (UniProt Q00537); conditions: Compound concentration 1000.0 nM
[6] = biological target: Serine/threonine-protein kinase PAK 3 (Homo sapiens) (UniProt O75914); conditions: Compound concentration 1000.0 nM
[7] = biological target: Mitogen-activated protein kinase 14 (Homo sapiens) (UniProt Q16539); conditions: Compound concentration 1000.0 nM
Mitogen-activated protein kinase 14 (Homo sapiens), sequence (Q16539 whole entry): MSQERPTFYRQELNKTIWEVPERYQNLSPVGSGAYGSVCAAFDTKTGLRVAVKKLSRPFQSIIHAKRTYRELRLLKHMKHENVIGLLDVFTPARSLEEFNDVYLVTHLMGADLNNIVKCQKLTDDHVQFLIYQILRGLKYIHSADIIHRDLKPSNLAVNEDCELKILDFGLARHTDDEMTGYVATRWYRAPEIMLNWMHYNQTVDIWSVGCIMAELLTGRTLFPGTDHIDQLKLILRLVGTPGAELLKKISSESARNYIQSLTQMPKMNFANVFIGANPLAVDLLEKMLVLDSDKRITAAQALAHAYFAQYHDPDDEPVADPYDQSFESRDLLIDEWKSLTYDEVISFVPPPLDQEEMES

[8] = test system: Tyrosine-protein kinase ABL1 (Homo sapiens), P00519 [F317I]; conditions: Compound concentration 1000.0 nM
[9] = biological target: Protein kinase C theta type (Homo sapiens) (UniProt Q04759); conditions: Compound concentration 1000.0 nM
[10] = biological target: Serine/threonine-protein kinase Sgk2 (Homo sapiens) (UniProt Q9HBY8); conditions: Compound concentration 1000.0 nM
[11] = biological target: Ephrin type-A receptor 6 (Homo sapiens) (UniProt Q9UF33); conditions: Compound concentration 1000.0 nM
[12] = biological target: Wee1-like protein kinase (Homo sapiens) (UniProt P30291); conditions: Compound concentration 1000.0 nM
[13] = biological target: Dual specificity tyrosine-phosphorylation-regulated kinase 1B (Homo sapiens) (UniProt Q9Y463); conditions: Compound concentration 1000.0 nM
[14] = biological target: Tyrosine-protein kinase receptor Tie-1 (Homo sapiens) (UniProt P35590); conditions: Compound concentration 1000.0 nM
[15] = biological target: Mitotic checkpoint serine/threonine-protein kinase BUB1 (Homo sapiens) (UniProt O43683); conditions: Compound concentration 1000.0 nM
[16] = biological target: Glycogen synthase kinase-3 beta (Homo sapiens) (UniProt P49841); conditions: Compound concentration 1000.0 nM
[17] = test system: Mast/stem cell growth factor receptor Kit (Homo sapiens), P10721 [V559D,T670I]; conditions: Compound concentration 1000.0 nM
[18] = biological target: Kappa-type opioid receptor (Homo sapiens) (UniProt P41145); conditions: Compound concentration 10.0 uM
[19] = biological target: Ribosomal protein S6 kinase alpha-3 (Homo sapiens) (UniProt P51812); conditions: Compound concentration 1000.0 nM
Ribosomal protein S6 kinase alpha-3 (Homo sapiens), sequence (P51812 whole entry): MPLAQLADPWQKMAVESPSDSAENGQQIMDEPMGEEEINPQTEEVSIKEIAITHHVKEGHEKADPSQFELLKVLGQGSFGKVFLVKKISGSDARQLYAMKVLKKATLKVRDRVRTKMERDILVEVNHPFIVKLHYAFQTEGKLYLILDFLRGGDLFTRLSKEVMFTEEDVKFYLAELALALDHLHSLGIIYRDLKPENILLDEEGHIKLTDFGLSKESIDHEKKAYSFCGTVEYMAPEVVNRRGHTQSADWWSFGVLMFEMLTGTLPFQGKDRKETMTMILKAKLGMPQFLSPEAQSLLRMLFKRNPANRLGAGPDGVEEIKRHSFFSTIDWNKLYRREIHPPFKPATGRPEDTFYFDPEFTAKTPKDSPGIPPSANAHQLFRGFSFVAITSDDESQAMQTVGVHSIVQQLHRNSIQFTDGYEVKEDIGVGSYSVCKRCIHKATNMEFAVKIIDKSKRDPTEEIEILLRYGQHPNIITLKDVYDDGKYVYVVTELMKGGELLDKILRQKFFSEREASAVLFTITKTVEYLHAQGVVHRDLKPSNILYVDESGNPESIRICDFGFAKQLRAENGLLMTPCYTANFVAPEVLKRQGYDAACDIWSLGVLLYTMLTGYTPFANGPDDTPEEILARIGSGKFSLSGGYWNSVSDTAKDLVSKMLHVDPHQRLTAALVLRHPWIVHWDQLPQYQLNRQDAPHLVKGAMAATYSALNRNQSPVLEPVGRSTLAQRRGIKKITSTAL

[20] = biological target: Cyclin-dependent kinase 2 homolog (Plasmodium falciparum (isolate 3D7)) (UniProt P61075); conditions: Compound concentration 1000.0 nM
[21] = biological target: Ribosomal protein S6 kinase alpha-4 (Homo sapiens) (UniProt O75676); conditions: Compound concentration 1000.0 nM
Ribosomal protein S6 kinase alpha-4 (Homo sapiens), sequence (O75676 whole entry, looked up, the tested form may be a part): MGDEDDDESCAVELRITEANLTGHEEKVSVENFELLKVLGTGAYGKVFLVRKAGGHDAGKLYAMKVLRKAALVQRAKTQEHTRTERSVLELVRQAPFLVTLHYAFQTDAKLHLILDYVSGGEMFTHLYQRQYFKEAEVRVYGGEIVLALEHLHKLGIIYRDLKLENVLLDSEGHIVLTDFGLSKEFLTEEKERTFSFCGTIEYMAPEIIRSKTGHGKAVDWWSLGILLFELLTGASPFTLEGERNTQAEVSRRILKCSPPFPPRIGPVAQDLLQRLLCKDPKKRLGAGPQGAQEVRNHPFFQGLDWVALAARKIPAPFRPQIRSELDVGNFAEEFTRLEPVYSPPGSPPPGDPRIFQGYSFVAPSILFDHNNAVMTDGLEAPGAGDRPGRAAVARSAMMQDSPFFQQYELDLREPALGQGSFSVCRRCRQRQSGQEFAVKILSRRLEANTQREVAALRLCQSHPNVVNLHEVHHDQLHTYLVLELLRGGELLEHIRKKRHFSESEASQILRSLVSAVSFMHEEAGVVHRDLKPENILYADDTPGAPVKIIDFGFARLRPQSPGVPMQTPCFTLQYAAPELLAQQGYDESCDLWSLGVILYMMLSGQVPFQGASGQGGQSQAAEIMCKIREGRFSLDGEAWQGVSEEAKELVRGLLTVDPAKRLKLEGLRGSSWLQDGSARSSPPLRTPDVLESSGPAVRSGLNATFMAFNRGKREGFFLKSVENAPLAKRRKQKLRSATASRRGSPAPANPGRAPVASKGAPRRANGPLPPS

[22] = biological target: Epithelial discoidin domain-containing receptor 1 (Homo sapiens) (UniProt Q08345); conditions: Compound concentration 1000.0 nM
Epithelial discoidin domain-containing receptor 1 (Homo sapiens), sequence (Q08345 whole entry, the tested form may be a part): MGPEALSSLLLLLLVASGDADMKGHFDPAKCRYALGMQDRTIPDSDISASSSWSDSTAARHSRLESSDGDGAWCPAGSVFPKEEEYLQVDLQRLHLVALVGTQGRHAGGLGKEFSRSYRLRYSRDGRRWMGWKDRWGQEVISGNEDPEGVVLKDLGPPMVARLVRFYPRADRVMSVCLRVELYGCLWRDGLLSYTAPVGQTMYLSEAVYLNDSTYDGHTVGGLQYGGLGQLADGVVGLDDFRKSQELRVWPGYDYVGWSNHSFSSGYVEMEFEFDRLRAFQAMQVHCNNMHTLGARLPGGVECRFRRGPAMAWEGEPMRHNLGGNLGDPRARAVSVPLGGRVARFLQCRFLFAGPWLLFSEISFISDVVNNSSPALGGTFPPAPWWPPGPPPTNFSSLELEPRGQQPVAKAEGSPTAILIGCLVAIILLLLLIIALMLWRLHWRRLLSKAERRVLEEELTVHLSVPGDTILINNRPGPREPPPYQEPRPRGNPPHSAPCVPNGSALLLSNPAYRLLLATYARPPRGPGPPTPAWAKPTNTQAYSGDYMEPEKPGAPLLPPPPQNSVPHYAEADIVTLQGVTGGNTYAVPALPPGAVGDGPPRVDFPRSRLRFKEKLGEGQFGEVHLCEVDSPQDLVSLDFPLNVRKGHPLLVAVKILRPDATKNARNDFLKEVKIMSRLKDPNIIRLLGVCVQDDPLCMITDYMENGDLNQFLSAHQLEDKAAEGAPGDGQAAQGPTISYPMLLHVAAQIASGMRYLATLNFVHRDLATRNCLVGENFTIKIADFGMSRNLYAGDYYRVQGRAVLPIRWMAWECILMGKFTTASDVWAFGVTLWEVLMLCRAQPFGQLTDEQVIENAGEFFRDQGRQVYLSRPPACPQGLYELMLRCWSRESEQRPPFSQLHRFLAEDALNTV

[23] = biological target: Tyrosine-protein kinase ABL1 (Homo sapiens) (UniProt P00519); conditions: Compound concentration 1000.0 nM
[24] = biological target: Serine/threonine-protein kinase TBK1 (Homo sapiens) (UniProt Q9UHD2); conditions: Compound concentration 1000.0 nM
[25] = biological target: Ribosomal protein S6 kinase alpha-1 (Homo sapiens) (UniProt Q15418); conditions: Compound concentration 1000.0 nM
[26] = biological target: Serine/threonine-protein kinase MAK (Homo sapiens) (UniProt P20794); conditions: Compound concentration 1000.0 nM
[27] = biological target: Serine/threonine-protein kinase Nek1 (Homo sapiens) (UniProt Q96PY6); conditions: Compound concentration 1000.0 nM
[28] = test system: Receptor-type tyrosine-protein kinase FLT3 (Homo sapiens), P36888 [N841I]; conditions: Compound concentration 1000.0 nM
[29] = biological target: Mitogen-activated protein kinase kinase kinase kinase 2 (Homo sapiens) (UniProt Q12851); conditions: Compound concentration 1000.0 nM
[30] = biological target: Serine/threonine-protein kinase 38 (Homo sapiens) (UniProt Q15208); conditions: Compound concentration 1000.0 nM
[31] = biological target: Tyrosine-protein kinase Srms (Homo sapiens) (UniProt Q9H3Y6); conditions: Compound concentration 1000.0 nM
[32] = biological target: Tyrosine-protein kinase Lyn (Homo sapiens) (UniProt P07948); conditions: Compound concentration 1000.0 nM
[33] = biological target: Serine/threonine-protein kinase D3 (Homo sapiens) (UniProt O94806); conditions: Compound concentration 1000.0 nM
Serine/threonine-protein kinase D3 (Homo sapiens), sequence (O94806 whole entry): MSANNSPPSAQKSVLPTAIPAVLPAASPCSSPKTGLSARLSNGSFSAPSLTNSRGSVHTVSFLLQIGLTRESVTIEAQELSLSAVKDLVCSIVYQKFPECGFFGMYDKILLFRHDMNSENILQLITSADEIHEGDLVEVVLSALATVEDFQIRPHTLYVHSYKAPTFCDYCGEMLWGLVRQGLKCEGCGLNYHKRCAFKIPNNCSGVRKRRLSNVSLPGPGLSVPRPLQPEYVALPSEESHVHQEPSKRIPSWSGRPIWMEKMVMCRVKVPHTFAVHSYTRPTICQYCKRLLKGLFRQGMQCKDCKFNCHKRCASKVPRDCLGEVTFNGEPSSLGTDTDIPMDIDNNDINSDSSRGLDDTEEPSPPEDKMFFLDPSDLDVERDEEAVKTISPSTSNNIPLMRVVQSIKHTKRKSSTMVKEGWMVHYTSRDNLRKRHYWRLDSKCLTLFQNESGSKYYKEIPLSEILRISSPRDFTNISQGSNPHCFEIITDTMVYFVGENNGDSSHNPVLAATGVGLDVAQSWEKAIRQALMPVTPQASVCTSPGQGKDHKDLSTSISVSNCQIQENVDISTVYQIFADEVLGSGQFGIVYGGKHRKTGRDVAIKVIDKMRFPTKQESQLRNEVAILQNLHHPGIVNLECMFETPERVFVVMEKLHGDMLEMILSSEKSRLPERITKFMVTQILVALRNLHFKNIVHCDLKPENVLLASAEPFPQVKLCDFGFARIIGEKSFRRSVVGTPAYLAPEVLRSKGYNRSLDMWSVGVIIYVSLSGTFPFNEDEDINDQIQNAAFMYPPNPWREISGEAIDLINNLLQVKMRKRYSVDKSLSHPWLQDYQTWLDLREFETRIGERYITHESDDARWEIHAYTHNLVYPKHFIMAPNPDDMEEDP

[34] = biological target: Tyrosine-protein kinase Mer (Homo sapiens) (UniProt Q12866); conditions: Compound concentration 1000.0 nM
[35] = biological target: Interleukin-1 receptor-associated kinase 3 (Homo sapiens) (UniProt Q9Y616); conditions: Compound concentration 1000.0 nM
[36] = biological target: Calcium/calmodulin-dependent protein kinase type 1B (Homo sapiens) (UniProt Q6P2M8); conditions: Compound concentration 1000.0 nM
[37] = biological target: Serine/threonine-protein kinase 10 (Homo sapiens) (UniProt O94804); conditions: Compound concentration 1000.0 nM
[38] = biological target: Serine/threonine-protein kinase Nek3 (Homo sapiens) (UniProt P51956); conditions: Compound concentration 1000.0 nM
[39] = biological target: Serine/threonine-protein kinase PAK 1 (Homo sapiens) (UniProt Q13153); conditions: Compound concentration 1000.0 nM
[40] = test system: Epidermal growth factor receptor (Homo sapiens), P00533 [UNDEFINED MUTATION]; conditions: Compound concentration 1000.0 nM
[41] = biological target: Serine/threonine-protein kinase ULK1 (Homo sapiens) (UniProt O75385); conditions: Compound concentration 1000.0 nM
[42] = test system: Serine/threonine-protein kinase B-raf (Homo sapiens), P15056 [V600E]; conditions: Compound concentration 1000.0 nM
[43] = biological target: LIM domain kinase 1 (Homo sapiens) (UniProt P53667); conditions: Compound concentration 1000.0 nM
[44] = biological target: Serine/threonine-protein kinase D2 (Homo sapiens) (UniProt Q9BZL6); conditions: Compound concentration 1000.0 nM
[45] = biological target: Serine/threonine-protein kinase PLK3 (Homo sapiens) (UniProt Q9H4B4); conditions: Compound concentration 1000.0 nM

Serine/threonine-protein kinase SIK3 (Homo sapiens), sequence (Q9Y2K2 whole entry, looked up): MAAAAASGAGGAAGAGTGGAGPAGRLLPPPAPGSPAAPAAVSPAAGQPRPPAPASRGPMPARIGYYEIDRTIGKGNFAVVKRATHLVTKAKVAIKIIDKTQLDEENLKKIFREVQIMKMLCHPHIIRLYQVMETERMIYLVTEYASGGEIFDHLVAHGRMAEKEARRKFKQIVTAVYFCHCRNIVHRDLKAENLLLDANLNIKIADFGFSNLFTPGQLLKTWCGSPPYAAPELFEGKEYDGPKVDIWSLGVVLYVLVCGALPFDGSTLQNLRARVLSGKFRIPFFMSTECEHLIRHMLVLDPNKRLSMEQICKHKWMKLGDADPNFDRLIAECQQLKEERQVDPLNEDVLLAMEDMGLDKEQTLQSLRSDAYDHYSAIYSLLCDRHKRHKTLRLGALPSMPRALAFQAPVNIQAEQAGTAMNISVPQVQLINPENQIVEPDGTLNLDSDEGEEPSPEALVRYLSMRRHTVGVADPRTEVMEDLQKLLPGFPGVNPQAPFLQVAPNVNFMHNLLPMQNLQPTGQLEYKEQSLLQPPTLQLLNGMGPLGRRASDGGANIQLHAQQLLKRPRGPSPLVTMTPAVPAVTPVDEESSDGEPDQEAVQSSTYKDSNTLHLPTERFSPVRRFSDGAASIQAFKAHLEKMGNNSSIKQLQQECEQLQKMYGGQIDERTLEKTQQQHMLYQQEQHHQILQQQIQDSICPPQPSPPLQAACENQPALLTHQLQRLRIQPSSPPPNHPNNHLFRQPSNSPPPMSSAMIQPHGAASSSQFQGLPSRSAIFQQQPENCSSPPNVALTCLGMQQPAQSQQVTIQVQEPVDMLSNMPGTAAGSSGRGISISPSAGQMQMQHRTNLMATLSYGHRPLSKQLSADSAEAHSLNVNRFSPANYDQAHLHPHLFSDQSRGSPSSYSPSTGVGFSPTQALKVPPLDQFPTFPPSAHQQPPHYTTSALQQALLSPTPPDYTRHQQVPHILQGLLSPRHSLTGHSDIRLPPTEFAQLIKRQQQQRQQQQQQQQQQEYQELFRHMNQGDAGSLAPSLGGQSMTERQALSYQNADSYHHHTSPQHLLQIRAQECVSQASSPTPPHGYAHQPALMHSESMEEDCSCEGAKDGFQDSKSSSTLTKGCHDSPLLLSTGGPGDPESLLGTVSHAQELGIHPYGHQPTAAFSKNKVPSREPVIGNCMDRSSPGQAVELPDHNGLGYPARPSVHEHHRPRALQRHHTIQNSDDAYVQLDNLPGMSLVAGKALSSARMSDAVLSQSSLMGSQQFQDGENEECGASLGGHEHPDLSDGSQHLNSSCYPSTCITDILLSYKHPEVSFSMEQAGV

## CS(=O)(=O)NCC[C@H](NC(=O)c1cncc2c1cnn2-c1ccc(F)cc1)c1ccnc(S(C)(=O)=O)c1 [BI 9307]
[1]
  residual activity: 100%
[2]
  residual activity: 95%
[3]
  residual activity: 98%
[4]
  residual activity: 100%
[5]
  residual activity: 100%
[6]
  residual activity: 100%
[7]
  residual activity: 100%
[8]
  residual activity: 94%
[9]
  residual activity: 100%
[10]
  residual activity: 94%
[11]
  residual activity: 100%
[12]
  residual activity: 99%
[13]
  residual activity: 100%
[14]
  residual activity: 100%
[15]
  residual activity: 100%
[16]
  residual activity: 100%
[17]
  residual activity: 100%
[18]
  inhibition: 0.74%
[19]
  residual activity: 100%
[20]
  residual activity: 100%
[21]
  residual activity: 85%
[22]
  residual activity: 92%
[23]
  residual activity: 90%
[24]
  residual activity: 94%
[25]
  residual activity: 100%
[26]
  residual activity: 100%
[27]
  residual activity: 45%
[28]
  residual activity: 91%
[29]
  residual activity: 91%
[30]
  residual activity: 100%
[31]
  residual activity: 83%
[32]
  residual activity: 100%
[33]
  residual activity: 92%
[34]
  residual activity: 100%
[35]
  residual activity: 89%
[36]
  residual activity: 85%
[37]
  residual activity: 100%
[38]
  residual activity: 86%
[39]
  residual activity: 88%
[40]
  residual activity: 100%
[41]
  residual activity: 100%
[42]
  residual activity: 100%
[43]
  residual activity: 100%
[44]
  residual activity: 94%
[45]
  residual activity: 100%

## CS(=O)(=O)c1cc(C2(NC(=O)c3cncc4c3cnn4-c3ccc(F)cc3)CC2)ccn1 [BI 639667]
[1]
  residual activity: 89%
[2]
  residual activity: 100%
[3]
  residual activity: 81%
[4]
  residual activity: 100%
[5]
  residual activity: 79%
[6]
  residual activity: 100%
[7]
  residual activity: 100%
[8]
  residual activity: 79%
[9]
  residual activity: 99%
[10]
  residual activity: 67%
[11]
  residual activity: 100%
[12]
  residual activity: 100%
[13]
  residual activity: 74%
[14]
  residual activity: 73%
[15]
  residual activity: 85%
[16]
  residual activity: 85%
[17]
  residual activity: 84%
[18]
  inhibition: 1.68%
[19]
  residual activity: 99%
[20]
  residual activity: 100%
[21]
  residual activity: 85%
[22]
  residual activity: 100%
[23]
  residual activity: 86%
[24]
  residual activity: 94%
[25]
  residual activity: 77%
[26]
  residual activity: 100%
[27]
  residual activity: 45%
[28]
  residual activity: 100%
[29]
  residual activity: 100%
[30]
  residual activity: 100%
[31]
  residual activity: 86%
[32]
  residual activity: 100%
[33]
  residual activity: 97%
[34]
  residual activity: 100%
[35]
  residual activity: 59%
[36]
  residual activity: 78%
[37]
  residual activity: 99%
[38]
  residual activity: 100%
[39]
  residual activity: 100%
[40]
  residual activity: 100%
[41]
  residual activity: 100%
[42]
  residual activity: 94%
[43]
  residual activity: 100%
[44]
  residual activity: 97%
[45]
  residual activity: 68%
